The experiment relates to HCC1937 cells. Kind of experiment: HCC1937 cell viability assay (MTS). It is filed as cell-based. Conditions: Homo sapiens, HCC1937 cell line (footnote a), 48 hours treatment. The method, then:
HCC1937 cell line HCC1937 cells are plated in a 96 well plate format at a density of 10,000 cells per well. After incubation overnight, cells are treated with compounds 1-100 at following concentrations: 80, 40, 20, 10, 5, 2.5, 1.25 μM. Compound concentrations are prepared in RPMI via serial dilutions from a starting stock of 80 mM. 48 hours after compound treatment, cell viability is assessed using the Promega CellTiter 96 aqueous one proliferation assay (Promega G3582, MTS assay) according to manufacturer's protocol.
The cell viability data was analyzed with GraphPad Prism software. The values were log transformed and analyzed with non-linear regression (curve-fit) using log(inhibitor) vs. response—variable slope (four parameters) and constraining the bottom to equal zero. Unless otherwise indicated, the GI50 values provided in Table 35 correspond to the LNCaP cell viability assays.
A word on the GI50: it is the concentration that inhibits growth by half. A low value points to more potent growth inhibition. Regarding `O=S(=O)(NC1(c2ccc(F)cn2)CCNCC1)c1ccc(OC(F)(F)F)cc1` [Compound 65, N-(4-(5-fluoropyridin-2-yl)piperidin-4-yl)-4-(trifluoromethoxy)benzenesulfonamide], the GI50 came out at 75.1 µM. To `CC(C)CCN1CCC(NS(=O)(=O)c2ccc(OC(F)(F)F)cc2)(c2ccc(Cl)cc2)C1` (stereo not shown) [Compound 76, N-(3-(4-chlorophenyl)-1-isopentylpyrrolidin-3-yl)-4-(trifluoromethoxy)benzenesulfonamide] belongs 19.9 µM; to `N=S(=O)(NC1(c2ccc(F)cc2)CCNC1)c1ccc(OC(F)(F)F)cc1` (stereo not shown) [Compound 84, N-(3-(4-fluorophenyl)pyrrolidin-3-yl)-4-(trifluoromethoxy)benzenesulfonimidamide], 75.1 µM; to `Nc1cc(S(=O)(=O)NC2(c3ccc(F)cc3)CCNC2)ccc1OC(F)(F)F` (stereo not shown) [Compound 92, 3-amino-N-(3-(4-fluorophenyl)pyrrolidin-3-yl)-4-(trifluoromethoxy)benzenesulfonamide], 50.3 µM.

These data come from patent publication US20240174611A1 (Rappta Therapeutics Oy, priority 2021, published 2024).
